PMC10451034, “Highly Efficient Photosensitizers with Molecular Vibrational Torsion for Cancer Photodynamic Therapy” (ACS Central Science, 2023)

Assays:
[1] = UV-vis absorption, fluorescence emission, absolute fluorescence quantum yield and fluorescence lifetime; format: physicochemical; settings: for Δλ, Stokes shift / λem, maximum emission wavelength / τS, fluorescence lifetime: in dichloromethane; for UV-vis absorption maximum in PBS: phosphate-buffered solution (PBS); for molar extinction coefficient: at absorption peak about 710 nm, DCM
Description: First, the UV–vis absorption and fluorescence emission spectra of the series of compounds were measured and analyzed. […] Concurrently, the Stokes shifts of all four compounds were more than 60 nm (Figure 2a,b and Table 1), which could effectively improve the signal-to-noise ratio (SNR) of fluorescence compared to the ordinary TCy7. The fluorescence lifetimes of all four compounds were within 2 ns, indicating no delayed fluorescence generation (Figure 2c and Table 1). […]
Materials and Instrumentation
All the general chemicals used in this paper are purchased from Energy Chemical Co. and Innochem Chemical Co. unless otherwise specified. All solvents were […]
analytically pure. […]
All the other solvents and reagents used in this study were of analytical grade. All the BALB/c mice were purchased from Liaoning […]
III 500 spectrometers. Absorption and emission spectra for all the compounds were achieved on the Agilent Technologies CARY 60 UV -Vis spectrophotometer and VAEIAN CARY Eclipse fluorescence spectrop hotometer (Serial No. FL0812 -M018), […]
respectively. Unless otherwise specified, all spectroscopic tests were performed in a quartz cell (10×10 mm). Fluorescence quantum yield of all the compounds were measured on the HAMAMATSU absolute fluorescence quantum yield spectrometer (Serial No. C11347). Triplet lifetime of compounds were acquired on LP980 laser flash photolysis spectrometer (Edinburgh Instruments, U.K.). The cell confocal laser scanning microscope (CLSM) images were all obtained by using Olympus FV3000 confocal laser scanning microscope. […]
Figure 4, Figure S6 and Figure S7). The spin-orbital coupling (SOC) values between the S1/S1V and T2 were calculated with ORCA 4.13. Hole-Electron analysis was carried […]
ISC rate constants calculation […]
Triplet lifetime measurements
The triplet life of QTCy7-R was measured by LP980 laser flash photolysis spectrometer (Edinburgh Instruments Ltd.) in combination with a Nd:YAG laser (Surelite I-10, Continuum Electro-Optics, Inc.). The oxygen in the sample was removed by aerating nitrogen for 30 min. The samples (5 μM) were excited by a 610 nm laser pulse (1 Hz, 100 mJ per pulse, fwhm ≈ 7 ns) at 300 K. The triplet state decay kinetics were measured at the maximum absorption wavelengths of each compound.
Fluorescence lifetime and femtosecond time-resolved transient absorption spectra […]
The fluorescence lifetimes and femtosecond time-resolved transient absorption spectra of dyes were recorded on a freshly prepared samples using the time-correlated single photon counting (TCSPC) method (PicoQuant PicoHarp 300) at 300 K. The concentration is 10 μM, solvent is DCM.
Hepatoma carcinoma cells (HepG-2 cells), human mammary carcinoma (MCF-7) and mouse breast cancer cells (4T1) were maintained in Dulbecco’s modified Eagle’s

[2] = Triplet lifetime by laser flash photolysis; format: physicochemical; settings: 5 μM in deaerated dichloromethane, λex = 610 nm
From the text: To probe the mechanism of the observed phenomenon and further validate our hypothesis, ultrafast excited-state dynamic behaviors were implemented by using femtosecond transient absorption spectroscopy (fs-TA) (Figures 3a and S4a–c). In order to obtain the complete process of excited states, a 350 nm laser was chosen as a pump to populate the high singlet excited states (Sn) from the ground state (S0). […] With the growth of delay time, the ESA of S1 gradually decayed (τ = 7.65 ps); meanwhile, beyond our expectation, accompanied by a particularly noticeable peak at ca. 583 nm increasing promptly, this new emerging ESA peak reached its maximum within about 21.98 ps. Similar phenomena were found in the transient spectra of the other three compounds (Figures S4d–f). However, for the control TCy7, there was no obvious formation of another ESA peak in transient spectra (Figure S5). […] Furthermore, the rate of X state formation was calculated to be 4.54 × 10^10 s^–1 for QTCy7-Ac based on the rise time (kX = 1/τX,rise), which was close to the order of magnitude of the intramolecular distorted vibration behavior. […] Meanwhile, the triplet lifetime of this series of molecules was evaluated and inspected for further applications (Figures 3d and S4g–i). […]
Photoexcited singlet oxygen production was detected by employed 1,3-diphenylisobenzofuran (DPBF) as the indicator. The absorbance of DPBF at 415 nm was regulated to about 1.0 in DCM. And the samples were irradiated with 660 nm light for various times, then the absorption spectra of different time nodes were recorded.
The singlet oxygen quantum yield (ΦΔ) was calculated by the following equation:
Where “Φ” represent the singlet oxygen quantum yield , “sam” and “std” represent QTCy7-R and MB, respectively. “m” is the slope of the absorbance of DPBF at 415 nm with time, F=1–10-O.D. (O.D. is the absorbance of samples at 660 nm). […]
The triplet life of QTCy7-R was measured by LP980 laser flash photolysis spectrometer (Edinburgh Instruments Ltd.) in combination with a Nd:YAG laser (Surelite I-10, Continuum Electro-Optics, Inc.). […]

SMILES	ΦF, absolute fluorescence quantum yield [1]	Δλ, Stokes shift [1]	λem, maximum emission wavelength [1]	τS, fluorescence lifetime [1]	UV-vis absorption maximum in PBS [1]	triplet lifetime [2]	molar extinction coefficient [1]
CCOC(=O)C1=C/C(=C\C=C2/Sc3ccccc3N2CC)C(=O)C(/C=C/c2sc3ccccc3[n+]2CC)=C1 [QTCy7-Ac]	31.4%	67 nm	703 nm	1.97 ns	610 nm	–	–
CCN1/C(=C/C=C2\C=C(C=O)C=C(/C=C/c3sc4ccccc4[n+]3CC)C2=O)Sc2ccccc21 [QTCy7-CHO]	28.0%	60 nm	690 nm	1.82 ns	552 nm	about 2 μs	–
CCN1/C(=C/C=C2\C=C(C)C=C(/C=C/c3sc4ccccc4[n+]3CC)C2=O)Sc2ccccc21 [QTCy7-Me]	16.7%	66 nm	780 nm	1.70 ns	701 nm	about 12 μs	approximately 4 × 10^4
CCN1/C(=C/C=C2\C=C(c3ccccc3)C=C(/C=C/c3sc4ccccc4[n+]3CC)C2=O)Sc2ccccc21 [QTCy7-Ph]	17.2%	72 nm	783 nm	1.90 ns	613 nm	about 12 μs	approximately 4 × 10^4
